Assay results taken from US5358947A, “Angiotensin II receptor blocking 2,3-substituted pyrazolo[1,5-a]-1,3,5-triazin-4(3H)-ones” (American Cyanamid Company, priority 1993, dated 1994).
“And” between values parts separate entries of the source, which are not always exact repeats. Equal entries are not always repeated.

Tested on: ANGIOTENSIN II (AII) VASOPRESSOR RESPONSE
Assay: AII Challenge: angiotensin II (AII) vasopressor response in conscious rats
Type: in vivo
Parameters: Response After AII / Change / Average Change: unit not given here
Conditions: 10 mg/kg i.v.; for Change / Response After AII / Control Before AII: individual rat, listed as Ex. 12; for Control Before AII: in mmHg (unit assumed); for % Inhibition / Average Change: n = 2
How it was run: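 Conscious male Okamoto-Aoki SHR (16-20 weeks, ~330 g), aorta/vena cava cannulated, challenged with AII 0.05 and 0.1 ug/kg i.v. before and at 30-300 min after compound dosed i.v., i.p. or orally. Systolic pressure rise expressed relative to each rat's predose response (100%).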

[1] = AII 0.05 mcg/kg, 30 min post dose
[2] = AII 0.05 mcg/kg, 60 min post dose
[3] = AII 0.05 mcg/kg, 90 min post dose
[4] = AII 0.05 mcg/kg, 120 min post dose
[5] = AII 0.05 mcg/kg, 180 min post dose
[6] = AII 0.05 mcg/kg, 240 min post dose
[7] = AII 0.05 mcg/kg, 300 min post dose
[8] = AII 0.1 mcg/kg, 30 min post dose
[9] = AII 0.1 mcg/kg, 60 min post dose
[10] = AII 0.1 mcg/kg, 90 min post dose
[11] = AII 0.1 mcg/kg, 120 min post dose
[12] = AII 0.1 mcg/kg, 180 min post dose
[13] = AII 0.1 mcg/kg, 240 min post dose
[14] = AII 0.1 mcg/kg, 300 min post dose

CCCCc1nc2cc(-c3ccc(F)cc3)nn2c(=O)n1Cc1ccc(-c2ccccc2-c2nnn[nH]2)cc1 [Example 12, 2-Butyl-7-(4-fluorophenyl)-3-[[2'-(1H-tetrazol-5-yl)[1,1'-biphenyl]-4-yl]methyl]pyrazolo[1,5-a]-1,3,5-triazin-4(3H)-one]
Change [1]: 10 and 20 | Response After AII [1]: 205 and 245 | Control Before AII [1]: 195 and 225 | % Inhibition [1]: 73% | Average Change [1]: 15 | Change [2]: 20 and 10 | Response After AII [2]: 200 and 240 | Control Before AII [2]: 180 and 230 | % Inhibition [2]: 7% | Average Change [2]: 15 | Change [3]: 20 and 25 | Response After AII [3]: 185 and 250 | Control Before AII [3]: 165 and 225 | % Inhibition [3]: 59% | Average Change [3]: 22.5 | Change [4]: 25 and 30 | Response After AII [4]: 185 and 255 | Control Before AII [4]: 160 and 225 | % Inhibition [4]: 50% | Average Change [4]: 27.5 | Change [5]: 10 and 33 | Response After AII [5]: 195 and 240 | Control Before AII [5]: 185 and 207 | % Inhibition [5]: 61% | Average Change [5]: 21.5 | Change [6]: 10 and 35 | Response After AII [6]: 195 and 255 | Control Before AII [6]: 185 and 220 | % Inhibition [6]: 59% | Average Change [6]: 22.5 | Change [7]: 15 and 35 | Response After AII [7]: 200 and 260 | Control Before AII [7]: 185 and 225 | % Inhibition [7]: 55% | Average Change [7]: 25 | Change [8]: 10 and 15 | Response After AII [8]: 210 and 250 | Control Before AII [8]: 200 and 235 | % Inhibition [8]: 76% | Average Change [8]: 12.5 | Change [9]: 15 and 30 | Response After AII [9]: 205 and 250 | Control Before AII [9]: 190 and 220 | % Inhibition [9]: 57% | Average Change [9]: 22.5 | Change [10]: 30 and 25 | Response After AII [10]: 200 and 260 | Control Before AII [10]: 170 and 235 | % Inhibition [10]: 48% | Average Change [10]: 27.5 | Change [11]: 25 and 42 | Response After AII [11]: 195 and 267 | Control Before AII [11]: 170 and 225 | % Inhibition [11]: 36% | Average Change [11]: 33.5 | Change [12]: 15 and 40 | Response After AII [12]: 200 and 250 | Control Before AII [12]: 185 and 210 | % Inhibition [12]: 48% | Average Change [12]: 27.5 | Change [13]: 15 and 45 | Response After AII [13]: 200 and 270 | Control Before AII [13]: 185 and 225 | % Inhibition [13]: 43% | Average Change [13]: 30 | Change [14]: 20 and 50 | Response After AII [14]: 205 and 275 | Control Before AII [14]: 185 and 225 | % Inhibition [14]: 33% | Average Change [14]: 35
